Results taken from patent US20110100079A1, “METHOD FOR IMPARTING STRESS TOLERANCE TO PLANT” (priority 2007, published 2011).

Tests used:
Format in all cases: in vivo
“Momotaro” tomato [1] = experiment: Standard test: standard extent of imparting plant salt stress tolerance; details: 100 ppm sprayed onto leaves 10 ml/specimen, NaCl 3510 ppm in tap water, fresh weight after 2 weeks vs salt-stressed untreated control plot 1
Experimental: Standard Test (I) Plant Preparation A 50-cell tray is filled with potting soil (fertilizer components: N:P:K=0.4:1.9:0.6 (g)/kg potting soil); and seeds of a “Momotaro” tomato (Takii Co., Ltd.) are sowed, thinly covered with potting soil, and sufficiently irrigated to allow the seeds to sprout. When the leaves in the 2-leaf stage are fully unfolded, the soil on the tomato roots is washed away with running water, and a test is performed. For the potting soil, Kureha gardening soil manufactured by Kureha Corporation may be used. (II) Test Condition Setting The environmental conditions are controlled such that the temperature is 23° C., the relative humidity is 50%, the illuminance is 5000 Lux, and the daily light-dark cycle includes a 16-hour light period and an 8-hour dark period. Such environmental conditions can be obtained by, for example, controlling the temperature in a room or a climate chamber where the temperature and the relative humidity can be controlled, and controlling illuminance by a fluorescent light or the like. […] (III) Treatment with Plant Stress Tolerance Imparting Composition […] A known surfactant or a like material that barely affects the plant may be used in the preparation of an aqueous dispersion. Test plot: An aqueous solution or an aqueous dispersion of a test compound (sugar derivative-type surfactant) (concentration: 100 ppm) is sprayed onto the leaves in an amount of 10 ml per tomato specimen. […] NaCl is added to a solution culture medium (creating a salt stress), but no test compound (plant stress tolerance imparting composition) is given to the tomato. Control plot 2: No NaCl is added to a solution culture medium (creating no salt stress), and no test compound (plant stress tolerance imparting composition) is given to the tomato. (IV) Calculation of Standard Extent of Imparting Plant Salt Stress Tolerance (%) […] The plant stress level (standard plant salt stress level) attained in the above-described standard test is about 130%. In this regard, the standard plant salt stress level can be calculated according to Formula (ii)′ below.

“Momotaro” tomato [2] = experiment: Example 4 salt stress tolerance imparting test (tomato, tap water + NaCl); details: tap water + NaCl 3510 ppm, 2 weeks
Excerpt: NaCl concentration 3510 ppm (water potential by NaCl: […]) (4) Cultivation period: two weeks (5) Plant preparation: A 50-cell tray was filled with Kureha gardening soil manufactured by Kureha Corporation (fertilizer components: N:P:K=0.4:1.9:0.6 g/kg soil), and seeds of a “Momotaro” tomato were sowed, thinly covered with Kureha gardening soil, and sufficiently irrigated to allow the seeds to sprout. When the leaves in the 2-leaf stage fully unfolded, the soil on the tomato roots was carefully washed away with running water, and a test was performed. (6) The chemicals used and the concentration of a treatment solution were as in Example 1 (7) Amount of application: 10 ml/specimen for leaf spraying, 50 ml/specimen for fertigation Method of Salt Stress Tolerance Imparting Test […]

[3] = test system: Potato Variety: Toyoshiro; experiment: Example 5 drying stress tolerance imparting test (potato variety Toyoshiro); details: 3 weeks
Experimental: Other cultivation conditions were the same as the conditions of the drying stress test. Drying stress conditions: soil pF value: 2.3, 2.5, or 2.9, cultivation temperature: 23° C., relative humidity: 50%, illuminance: 5000 Lux (fluorescent light), light/dark cycle: 16 hours/8 hours (2) Cultivation Period: 3 weeks (3) Soil: Kureha gardening soil manufactured by Kureha Corporation (fertilizer components: N:P:K=0.4:1.9:0.6 g/kg soil) (4) The chemicals used and the amount of a treatment solution applied were the same as in Example 3. Method of Drying Stress Tolerance Imparting Test A planter (60 cm) was filled with Kureha gardening soil manufactured by Kureha Corporation (fertilizer components: N:P:K=0.4:1.9:0.6 g/kg soil) in a glass greenhouse, tubers of a “Thyoshiro” potato were cut in half: and 5 pieces thereof were planted in the planter, thinly covered with Kureha gardening soil, and sufficiently watered to allow the tubers to sprout. When the leaves in the 3-leaf stage fully unfolded, the Solarium tuberosu was relocated on a plant culture rack in an air-conditioned room, and a test was initiated. […] From immediately after the beginning of the test, a treatment solution of Table 1 was sprayed onto the leaves or applied to the underground portions once a week. […] Five specimens (per planter) were prepared for each of the test plot and the control plots, plant bodies were collected 3 weeks after the beginning of the test such that the roots were not cut, the soil was washed away with running water, the fresh plant body weights were measured, and a plant stress level and an extent of imparting plant stress tolerance were calculated according to Formula (ii) and (iii) above using the average of the weights.

“Momotaro” tomato [4] = experiment: Example 1 salt stress tolerance imparting test (tomato, hydroponic, Otsuka 1/2A + NaCl); details: 2 weeks
Experimental: (1) Salt stress-free test conditions: NaCl concentration (water potential by Nan): 0 ppm (0 MPa). Other cultivation conditions were as the same as the conditions of the drying stress test.
When the leaves in the 2-leaf stage fully unfolded, the soil on the tomato roots was carefully washed away with running water, and a test was performed.
Method of Salt Stress Tolerance Imparting Test
The environmental conditions in a climatic chamber were controlled so as to have a temperature of 23° C., an illuminance by a fluorescent light of 5000 Lux, and a daily light-dark cycle of a 16-hour light period and an 8-hour dark period. […] A treatment solution containing a compound of Table 1 in a specific concentration (the remainder was water) was prepared and sprayed onto the leaves or applied to the underground portion. In addition, a control plot to which no NaCl was added, not imposing a salt stress (this is a control plot for plant body weight 2 for Formula (ii) and is a stress-free control plot) and a control plot to which NaCl was added in various concentrations, imposing a salt stress, and to which the treatment solution was not applied (this is a control plot for plant body weight 1 for Formula (ii) and is a control plot including a salt stress) were prepared as controls. Ten specimens were prepared for each of the test plot and the control plots, and a plant stress level and an extent of imparting plant stress tolerance were calculated according to Formulas (II) above using as a fresh plant body weight the average of the fresh plant body weights of each specimen 2 weeks after the beginning of the test.

[5] = pF 2.3, leaf, 100 ppm once a week
[6] = pF 2.5, leaf, 100 ppm once a week
[7] = pF 2.9, leaf, 100 ppm once a week
[8] = pF 2.3, leaf, 200 ppm once a week

Compound	Standard extent of imparting plant salt stress tolerance (“Momotaro” tomato [1]) [%]	Extent of imparting plant stress tolerance (“Momotaro” tomato [2]; leaf, 100 ppm) [%]	Extent of imparting plant stress tolerance [3, 5] [%]	Extent of imparting plant stress tolerance (“Momotaro” tomato [4]; NaCl 3510 ppm, leaf, 100 ppm) [%]	also measured
POE (20) sorbitan monooleic acid ester [Product of present invention 1]	113	113	113	113	Extent of imparting plant stress tolerance (“Momotaro” tomato [2]; leaf, 1 ppm): 112%; Extent of imparting plant stress tolerance (“Momotaro” tomato [2]; leaf, 10 ppm): 113%; Extent of imparting plant stress tolerance (“Momotaro” tomato [2]; leaf, 1000 ppm): 119%; Extent of imparting plant stress tolerance (“Momotaro” tomato [2]; underground portion, 100 ppm): 130%; Extent of imparting plant stress tolerance ([3]; pF 2.3, leaf, 1 ppm once a week): 112%; Extent of imparting plant stress tolerance ([3]; pF 2.3, leaf, 10 ppm once a week): 113%; Extent of imparting plant stress tolerance ([3]; pF 2.3, leaf, 1000 ppm once a week): 119%; Extent of imparting plant stress tolerance ([3]; pF 2.3, underground portion, 100 ppm once a week): 134%; Extent of imparting plant stress tolerance [3, 6]: 115%; Extent of imparting plant stress tolerance ([3]; pF 2.5, underground portion, 100 ppm once a week): 127%; Extent of imparting plant stress tolerance [3, 7]: 124%; Extent of imparting plant stress tolerance ([3]; pF 2.9, underground portion, 100 ppm once a week): 134%; Extent of imparting plant stress tolerance (“Momotaro” tomato [4]; NaCl 1500 ppm, leaf, 100 ppm): 113%; Extent of imparting plant stress tolerance (“Momotaro” tomato [4]; NaCl 1500 ppm, underground portion, 100 ppm): 124%; Extent of imparting plant stress tolerance (“Momotaro” tomato [4]; NaCl 3510 ppm, leaf, 1 ppm): 111%; Extent of imparting plant stress tolerance (“Momotaro” tomato [4]; NaCl 3510 ppm, leaf, 10 ppm): 112%; Extent of imparting plant stress tolerance (“Momotaro” tomato [4]; NaCl 3510 ppm, leaf, 1000 ppm): 118%; Extent of imparting plant stress tolerance (“Momotaro” tomato [4]; NaCl 3510 ppm, underground portion, 100 ppm): 130%; Extent of imparting plant stress tolerance (“Momotaro” tomato [4]; NaCl 5000 ppm, leaf, 100 ppm): 125%; Extent of imparting plant stress tolerance (“Momotaro” tomato [4]; NaCl 5000 ppm, underground portion, 100 ppm): 135%
POE (20) sorbitan monostearic acid ester [Product of present invention 14]	114	114	115	116	–
POE (20) sorbitan monopalmitic acid ester [Product of present invention 13]	116	116	118	117	–
Sucrose fatty acid ester (C16, HLB = 15) [Product of present invention 21]	117	117	118	114	–
Sorbitan monooleic acid ester [Product of present invention 11]	112	112	113	112	–
O=C(O)[C@@H]1CCCN1 [Comparative product 2, Proline, reference compound]	102	103	102	–	Extent of imparting plant stress tolerance [3, 6]: 103%; Extent of imparting plant stress tolerance [3, 7]: 103%
OC[C@H]1O[C@H](OC[C@H]2O[C@H](O[C@]3(CO)O[C@H](CO)[C@@H](O)[C@@H]3O)[C@H](O)[C@@H](O)[C@@H]2O)[C@H](O)[C@@H](O)[C@H]1O [Comparative product 4, Raffinose, reference compound]	102	102	103	–	–
POE (6) sorbitan monooleic acid ester [Product of present invention 10]	112	112	113	113	–
Sucrose fatty acid ester (C18, HLB = 11) [Product of present invention 19]	114	114	117	113	–
Alkyl (C10) polyglycoside [Product of present invention 15]	116	116	119	115	Extent of imparting plant stress tolerance (“Momotaro” tomato [2]; leaf, 200 ppm): 113%; Extent of imparting plant stress tolerance [3, 8]: 116%; Extent of imparting plant stress tolerance (“Momotaro” tomato [4]; NaCl 3510 ppm, leaf, 200 ppm): 114%
Sucrose fatty acid ester (C18:1, HLB = 15) [Product of present invention 22]	118	118	119	–	Extent of imparting plant stress tolerance (“Momotaro” tomato [2]; leaf, 200 ppm): 111%; Extent of imparting plant stress tolerance [3, 8]: 114%; Extent of imparting plant stress tolerance (“Momotaro” tomato [4]; NaCl 3510 ppm, leaf, 200 ppm): 112%
Alkyl (C12-14) polyglycoside [Product of present invention 16]	117	117	121	115	–
Sucrose fatty acid ester (C18, HLB = 9) [Product of present invention 18]	113	113	115	112	–
